Experiments:
Dectin-1 [1] = target: T1, Dectin-1 (Mus musculus, UniProt Q6QLQ4); conditions: autoimmune-prone; cited from earlier work
T1 construct: CD11b^+ cells and CD11c^+ cells were purified from colorectal polyps with autoMACS; endogenous in cells; host or cells: primary CD11b+/CD11c+ cells or all polyp-infiltrating cells from colorectal/intestinal polyps of WT (C57BL/6J, AOM-DSS) or Apc^Min/+ mice
T1 sequence (Q6QLQ4 1-244): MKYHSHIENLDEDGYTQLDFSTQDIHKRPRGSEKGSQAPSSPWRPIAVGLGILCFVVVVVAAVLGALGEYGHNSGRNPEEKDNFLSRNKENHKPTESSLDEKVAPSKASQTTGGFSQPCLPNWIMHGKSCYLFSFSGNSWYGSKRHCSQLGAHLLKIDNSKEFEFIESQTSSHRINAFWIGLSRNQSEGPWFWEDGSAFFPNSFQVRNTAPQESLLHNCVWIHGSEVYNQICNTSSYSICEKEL

Dectin-1 [2] = target: T1, Dectin-1; assay: Stimulation of Apc^Min/+ polyp-infiltrating leukocytes / CD11b+ cells with Curdlan, with or without laminarin pre-treatment, qPCR; type: cell-based; conditions: polyp-infiltrating leukocytes from Apc^Min/+ mice, Curdlan 20 hours, qPCR
Experimental: (§1) FIG. 5f: All polyp-infiltrating cells of the Apc^Min/+ mice were collected, and were stimulated with Curdlan for 20 hours, and then the expression of the genes involved in the PGE2 synthesis was measured by qPCR. A laminarin treatment was performed for 4 hours before the Curdlan treatment.
as §1, with “5g: Purified CD11b^+” for “5f: All”, “treatment. The data in (FIGS. 5a to 5g) are representative of two independent experiments and expressed as mean±SD. *p<0.05, **p<0.01, and ***p<0.001.” for “treatment.”
Infiltrating cells in mouse/human colorectal tumor/non-tumor tissues (2×10^5) or mouse/human colorectal tumor/non-tumor tissue pieces (3 mm×3 mm cut) were cultured with Dectin-1 ligands Curdlan, OXCA, or laminarin, or with PGE2 stimulation for 20 h at 37° C. under 5% CO2 in 96-well flat-bottomed plates (Falcon, Becton Dickinson) in a volume of 0.2 ml RPMI containing 10% FBS and 1% streptomycin plus penicillin. After the culture, cells or tissues were collected and mRNA expression of tumor- or anti-tumor-associated genes was measured by qPCR described in Quantitative reverse transcription PCR section described later. […]

DECTIN-1 [3] = target: T2, DECTIN-1 (Homo sapiens, UniProt Q9BXN2); assay: Curdlan stimulation of human CRC tissues or cancer-infiltrating leukocytes, qPCR; type: cell-based; conditions: Curdlan 20 hours
T2 construct: endogenous in cells; host or cells: tumour-infiltrating cells and small tumour tissue pieces from surgical specimens of human CRC patients
T2 sequence (Q9BXN2 1-247): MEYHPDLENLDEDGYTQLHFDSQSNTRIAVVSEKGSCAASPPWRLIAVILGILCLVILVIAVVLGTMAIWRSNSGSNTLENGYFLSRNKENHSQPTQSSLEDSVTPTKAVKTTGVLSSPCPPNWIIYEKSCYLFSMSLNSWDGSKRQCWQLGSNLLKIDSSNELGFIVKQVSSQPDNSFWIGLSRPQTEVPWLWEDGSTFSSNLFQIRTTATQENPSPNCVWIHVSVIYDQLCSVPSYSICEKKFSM
Experimental: (§2) FIG. 7g: CRC samples were collected, and tumor-infiltrating cells were stimulated with Curdlan for 20 hours. In the case of the laminarin treatment, the cells were first treated with laminarin for 4 hours, and thereafter, were supplied with Curdlan and cultured. Expression of PGE2 synthesizing enzymes was determined by qPCR. Data are mean±SD of 3 wells.
as §2, with “7h:” for “7g:”, “tumor-infiltrating cells and normal tissue-infiltrating” for “tumor-infiltrating”, “CD33” for “PGE2 synthesizing enzymes”
FIG. 13c: Fresh CRC specimens were collected after surgery, and small pieces of tumor tissues were stimulated with Curdlan for 20 hours. In the case of the laminarin treatment, the tissues were first treated with laminarin for 4 hours, and then Curdlan was added to the cultured tissues. The expression of the PGE2 synthase was determined by qPCR. The data are expressed as mean SD of 3 wells. *p<0.05, **p<0.01, and ****p<0.0001. […]

In the case of Curdlan, the “disease induction in SKG mice” value (Dectin-1 [1]) is given as “evokes arthritis, spondyloarthritis and ileitis”, the “expression of Ptges3, Ptgs1 and Ptgs2” value (Dectin-1 [2]) is given as “significantly induced” and the “PGE2 synthase gene expression” value (DECTIN-1 [3]; CRC tissues or cancer-infiltrating leukocytes) is given as “induction”. The “expression of CD33” value (DECTIN-1 [3]; tumor or normal tissue-infiltrating cells) was “upregulated”.

Reference: patent publication US20250057873A1, “Intestinal Tumor Suppressor, PGE2 Production Inhibitor, and IL-22BP Production Promoter” (TOKYO UNIVERSITY OF SCIENCE FOUNDATION, priority 2021, published 2025)
